pIC50: −log10 of the molar value. Read-outs that look alike come from different tables or passages of the source.
How the values were obtained:
[1] = test system: overexpressed USP30 F157A, I154A, A162S in HEK293 cells; test: Cellular ubiquitin probe competition, overexpressed USP30 F157A, I154A, A162S; assay type: cell-based, human; details: 2 µM compound, 2 h
Procedure: HEK293 cells (8 × 10^5 cells per well) were seeded in six-well plates and cultivated for 24 h. PEI transfecting reagent (Polysciences) was pre-incubated for 10 min with the vectors in 200 μl Opti-MEM medium (2 µg DNA per well). Cells were transfected and incubated for 48 h. Following the treatment with either compounds or DMSO in fresh medium for an additional 2 h, cells were processed as described below. Cells were seeded at 8 × 10^5 cells per well and grown for 48 h. […] The medium was aspirated, and cells were washed once with ice-cold PBS. Cells were collected by scraping in lysis buffer (150 mM NaCl, 250 mM sucrose, 50 mM Tris, pH 8.0, 5 mM TCEP) supplemented with EDTA-free complete protease inhibitor cocktail and benzonase. Suspended cells were homogenized by 12 bursts of a microtip probe sonicator (Branson Sonifier 450) at 10% amplitude with pulses of 1 s on ice. Remaining cell debris was separated by centrifugation (20,817g, 5 min, 4 °C). […] After incubation for 10 min at room temperature, reactions were quenched by the addition of 4× reducing LDS sample buffer. Samples were resolved by SDS–PAGE and further analyzed via western blot. Using a Trans-Blot Turbo system (Bio-Rad, 1.0 A, 25 V, 30 min), proteins were blotted onto a nitrocellulose membrane. […]

[2] = test system: USP30 constructs (construct 1, chimeras 1–3); test: Ub–RhoG cleavage enzyme inhibition assay, statements across constructs; assay type: biochemical, human; details: addition of hydroxyl group at the tert-butyl group
Procedure: Enzyme kinetics were performed in black, low-volume, non-binding-surface 384-well plates. For activity assays, 2× Ub–RhoG substrate (final concentration, 50 nM) and 2× enzyme (final concentration, 0.25–32 nM) were prepared in 20 mM HEPES, pH 8.0, 50 mM NaCl, 5 mM DTT, 0.1 mg ml^−1 BSA. Next, 10 µl of 2× enzyme solution was added in triplicate to the plate. The reaction was started by adding 10 µl of 2× substrate solution. For enzyme inhibition assays, 2× substrate (final concentration, 100 nM), 4× enzyme (final concentration, 0.1 nM) and 4× inhibitor (final concentration, 1.6 pM–1.6 μM) were prepared in 50 mM Tris-HCl, pH 8.0, 0.05 mg ml^−1 BSA, 4 mM DTT, 0.01% Tween-20. Inhibitor solution (4×) was added to 4× enzyme solution to create a 2× enzyme–inhibitor mixture. Next, 10 µl of this 2× enzyme–inhibitor mixture was then added to the plate in triplicate, and the plate was incubated at room temperature for 90 min. The reaction was started by adding 10 µl of 2× Ub–RhoG substrate. Substrate cleavage was monitored by measurement of cleaved RhoG fluorescence (excitation, 492 nm; emission, 525 nm) every 30 s for 1 h at 25 °C on a Tecan Spark plate reader. Data were analyzed with GraphPad Prism.

USP30^ch3 F157A = USP30^ch3 F157A (Homo sapiens, UniProt Q70CQ3, F157A, form not given); test: Ub–RhoG cleavage enzyme inhibition assay, chimera 3 F157A; assay type: biochemical; details: mean n=3
Procedure: (§1) Enzyme kinetics were performed in black, low-volume, non-binding-surface 384-well plates. […] Next, 10 µl of 2× enzyme solution was added in triplicate to the plate. The reaction was started by adding 10 µl of 2× substrate solution. […] Inhibitor solution (4×) was added to 4× enzyme solution to create a 2× enzyme–inhibitor mixture. Next, 10 µl of this 2× enzyme–inhibitor mixture was then added to the plate in triplicate, and the plate was incubated at room temperature for 90 min. The reaction was started by adding 10 µl of 2× Ub–RhoG substrate. […] Data were analyzed with GraphPad Prism.

USP30 [3] = test system: USP30; parameters: method as in PMID 37385347; details: ‘pseudo-covalent’ binding mode proposed; cited from earlier work
USP30^ch2 = USP30^ch2 (Homo sapiens, UniProt Q70CQ3); test: Ub–RhoG cleavage enzyme inhibition assay, chimera 2; assay type: biochemical; parameters: scale not given here; details: mean n=3
Procedure: as §1

recombinant USP30 = details: read-out: Ub–Rho IC50 against recombinant USP30; cited from earlier work
USP30 [4] = details: read-out: Cellular ABPP IC50 / cellular target engagement, cited from earlier work
USP30^ch3 I154A = USP30^ch3 I154A (Homo sapiens, UniProt Q70CQ3, I154A, form not given); test: Ub–RhoG cleavage enzyme inhibition assay, chimera 3 I154A; assay type: biochemical; details: mean n=3
Procedure: as §1

USP30^ch3 A162S = USP30^ch3 A162S (Homo sapiens, UniProt Q70CQ3, A162S, form not given); test: Ub–RhoG cleavage enzyme inhibition assay, chimera 3 A162S; assay type: biochemical; details: mean n=3
Procedure: as §1

USP30^ch2, sequence (Q70CQ3 64-502): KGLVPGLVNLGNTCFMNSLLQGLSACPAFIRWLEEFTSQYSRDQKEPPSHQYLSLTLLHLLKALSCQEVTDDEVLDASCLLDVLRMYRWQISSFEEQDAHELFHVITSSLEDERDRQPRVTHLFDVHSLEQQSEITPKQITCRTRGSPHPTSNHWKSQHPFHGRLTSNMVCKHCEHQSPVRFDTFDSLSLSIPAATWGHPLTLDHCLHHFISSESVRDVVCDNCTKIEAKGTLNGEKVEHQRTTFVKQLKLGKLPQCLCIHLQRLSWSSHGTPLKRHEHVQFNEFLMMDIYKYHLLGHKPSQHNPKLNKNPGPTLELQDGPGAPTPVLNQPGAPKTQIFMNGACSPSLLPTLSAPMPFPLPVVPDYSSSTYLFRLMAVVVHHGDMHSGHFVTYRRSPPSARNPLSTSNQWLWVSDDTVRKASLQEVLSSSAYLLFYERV
USP30^ch2, sequence (P54578 248-318 partner): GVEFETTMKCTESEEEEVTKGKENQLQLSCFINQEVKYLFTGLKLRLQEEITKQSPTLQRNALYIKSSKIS
USP30^ch3 F157A, sequence (Q70CQ3 64-502 F157A, form open): as the sequence (Q70CQ3 64-502) above, with F94A counted along it
USP30^ch3 F157A, sequence (P54578 248-318 partner, form open): as the sequence (P54578 248-318 partner) above
USP30^ch3 F157A, sequence (Q9P2H5 821-846 partner, form open): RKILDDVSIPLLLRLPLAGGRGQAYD
USP30^ch3 I154A, sequence (Q70CQ3 64-502 I154A, form open): as the sequence (Q70CQ3 64-502) above, with I91A counted along it
USP30^ch3 I154A, sequence (P54578 248-318 partner, form open): as the sequence (P54578 248-318 partner) above
USP30^ch3 A162S, sequence (Q70CQ3 64-502 A162S, form open): as the sequence (Q70CQ3 64-502) above, with A99S counted along it
USP30^ch3 A162S, sequence (P54578 248-318 partner, form open): as the sequence (P54578 248-318 partner) above

With `CC(C)(CO)NS(=O)(=O)c1ccc(NC(=O)[C@H](Cc2ccccc2)NC(=O)c2ccc(F)cc2)cc1` [NK036] the “inhibition of overexpressed USP30 F157A, I154A, A162S in cells” value [1] was “refractory to inhibition” and the “decrease in potency relative to compound 39” value [2] was “about one order of magnitude”.

With `CC(C)(C)NS(=O)(=O)c1ccc(NC(=O)[C@H](Cc2ccccc2)NC(=O)c2ccc(F)cc2)cc1` [compound 39] the “USP30ch3 F157A activity” value (USP30^ch3 F157A; inhibitor 0.001563 nM) was 0.978, the “USP30ch3 F157A activity” value (USP30^ch3 F157A; inhibitor 0.00625 nM) was 1.043 and the “USP30ch3 F157A activity” value (USP30^ch3 F157A; inhibitor 0.025 nM) was 0.9706. The “USP30ch3 F157A activity” value (USP30^ch3 F157A; inhibitor 0.1 nM) was 0.9583, the “USP30ch3 F157A activity” value (USP30^ch3 F157A; inhibitor 0.39 nM) was 0.8963 and the “USP30ch3 F157A activity” value (USP30^ch3 F157A; inhibitor 1.56 nM) was 0.8924. For the same compound, the “USP30ch3 F157A activity” value (USP30^ch3 F157A; inhibitor 6.25 nM) was 0.7707, the “USP30ch3 F157A activity” value (USP30^ch3 F157A; inhibitor 25 nM) was 0.6122 and the “USP30ch3 F157A activity” value (USP30^ch3 F157A; inhibitor 100 nM) was 0.362. The “USP30ch3 F157A activity” value (USP30^ch3 F157A; inhibitor 400 nM) was 0.2241, the “USP30ch3 F157A activity” value (USP30^ch3 F157A; inhibitor 1600 nM) was 0.2066 and the off-rate (USP30 [3]) was “exceptionally slow off-rate”. For the same compound, the USP30ch2 activity (USP30^ch2; inhibitor 0.0015625 nM) was 0.9681, the USP30ch2 activity (USP30^ch2; inhibitor 0.00625 nM) was 1.022 and the USP30ch2 activity (USP30^ch2; inhibitor 0.025 nM) was 0.8647. The USP30ch2 activity (USP30^ch2; inhibitor 0.1 nM) was 0.7206, the USP30ch2 activity (USP30^ch2; inhibitor 0.39 nM) was 0.5237 and the USP30ch2 activity (USP30^ch2; inhibitor 1.56 nM) was 0.3579. The USP30ch2 activity (USP30^ch2; inhibitor 6.25 nM) was 0.1977, the USP30ch2 activity (USP30^ch2; inhibitor 25 nM) was 0.0871 and the USP30ch2 activity (USP30^ch2; inhibitor 100 nM) was 0.04077. For the same compound, the USP30ch2 activity (USP30^ch2; inhibitor 400 nM) was 0.01798, the USP30ch2 activity (USP30^ch2; inhibitor 1600 nM) was 0.005204 and the pIC50 (recombinant USP30) was 7.70 to 8.70. For the same compound, the pIC50 (USP30 [4]; listed as Compound 39) was over 7.30, the pIC50 (USP30 [4]) was 7.30 to 8.00 and the “USP30ch3 I154A activity” value (USP30^ch3 I154A; inhibitor 0.001563 nM) was 1.024. The “USP30ch3 I154A activity” value (USP30^ch3 I154A; inhibitor 0.00625 nM) was 1.056, the “USP30ch3 I154A activity” value (USP30^ch3 I154A; inhibitor 0.025 nM) was 0.9999 and the “USP30ch3 I154A activity” value (USP30^ch3 I154A; inhibitor 0.1 nM) was 1.007. For the same compound, the “USP30ch3 I154A activity” value (USP30^ch3 I154A; inhibitor 0.39 nM) was 0.9637, the “USP30ch3 I154A activity” value (USP30^ch3 I154A; inhibitor 1.56 nM) was 0.9166 and the “USP30ch3 I154A activity” value (USP30^ch3 I154A; inhibitor 6.25 nM) was 0.8225. For the same compound, the “USP30ch3 I154A activity” value (USP30^ch3 I154A; inhibitor 25 nM) was 0.6606, the “USP30ch3 I154A activity” value (USP30^ch3 I154A; inhibitor 100 nM) was 0.4173 and the “USP30ch3 I154A activity” value (USP30^ch3 I154A; inhibitor 400 nM) was 0.274. The “USP30ch3 I154A activity” value (USP30^ch3 I154A; inhibitor 1600 nM) was 0.2192, the “USP30ch3 A162S activity” value (USP30^ch3 A162S; inhibitor 0.001563 nM) was 0.9737 and the “USP30ch3 A162S activity” value (USP30^ch3 A162S; inhibitor 0.00625 nM) was 1.01. The “USP30ch3 A162S activity” value (USP30^ch3 A162S; inhibitor 0.025 nM) was 0.9776, the “USP30ch3 A162S activity” value (USP30^ch3 A162S; inhibitor 0.1 nM) was 0.9451 and the “USP30ch3 A162S activity” value (USP30^ch3 A162S; inhibitor 0.39 nM) was 0.896. For the same compound, the “USP30ch3 A162S activity” value (USP30^ch3 A162S; inhibitor 1.56 nM) was 0.93, the “USP30ch3 A162S activity” value (USP30^ch3 A162S; inhibitor 6.25 nM) was 0.7972 and the “USP30ch3 A162S activity” value (USP30^ch3 A162S; inhibitor 25 nM) was 0.6308. For the same compound, the “USP30ch3 A162S activity” value (USP30^ch3 A162S; inhibitor 100 nM) was 0.4027, the “USP30ch3 A162S activity” value (USP30^ch3 A162S; inhibitor 400 nM) was 0.2411 and the “USP30ch3 A162S activity” value (USP30^ch3 A162S; inhibitor 1600 nM) was 0.2091.

From PMC12440824, “Chimeric deubiquitinase engineering reveals structural basis for specific inhibition of the mitophagy regulator USP30” (Nature Structural & Molecular Biology, 2025)
